Results published in patent US10544143B2, “4-azaindole compounds” (BRISTOL-MYERS SQUIBB COMPANY, priority 2017, dated 2020).
Read-outs that look alike come from different tables or passages of the source.

Key:
human TLR8 = human TLR8 (Homo sapiens (Human), UniProt Q9NR97); test: TLR8 inhibition reporter assay (HEK-Blue SEAP);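 further: SEAP driven by IFN-β minimal promoter carrying NF-κB and AP-1 sites, compounds dosed 0.05 nM to 50 µM for 22 h, inhibition scaled between agonist-plus-DMSO and reference-inhibitor wells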
human TLR9 = human TLR9 (Homo sapiens (Human), UniProt Q9NR96); test: TLR9 inhibition reporter assay (HEK-Blue SEAP);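 further: SEAP driven by an IFN-β minimal promoter with NF-κB and AP-1 sites, read after 22 h, compounds dosed 0.05 nM–50 µM, inhibition scaled between agonist plus DMSO and reference-inhibitor wells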
human TLR7 = human TLR7 (Homo sapiens (Human), UniProt Q9NYK1); test: TLR7 inhibition reporter assay (HEK-Blue SEAP); format: cell-based
[1] = read-out: TLR8 IC50, HEK-Blue human TLR8 cells, R848 15.9 μM
[2] = read-out: TLR9 IC50, HEK-Blue human TLR9 cells, ODN2006 5 nM
[3] = HEK-Blue human TLR7 cells, gardiquimod 7.5 μM
[4] = read-out: TLR8 IC50, HEK-Blue cells overexpressing human TLR8, SEAP reporter, R848 15.9 μM
[5] = read-out: TLR9 IC50, HEK-Blue cells overexpressing human TLR9, SEAP reporter, ODN2006 5 nM
[6] = HEK-Blue cells overexpressing human TLR7, SEAP reporter, gardiquimod 7.5 μM
[7] = read-out: TLR8 IC50, HEK-Blue cells overexpressing human TLR8, R848 15.9 μM stimulation, SEAP reporter
[8] = read-out: TLR9 IC50, HEK-Blue cells overexpressing human TLR9, ODN2006 5 nM stimulation, SEAP reporter
[9] = HEK-Blue cells overexpressing human TLR7, gardiquimod 7.5 μM stimulation, SEAP reporter

Sequence of human TLR9 (Q9NR96 26-1032): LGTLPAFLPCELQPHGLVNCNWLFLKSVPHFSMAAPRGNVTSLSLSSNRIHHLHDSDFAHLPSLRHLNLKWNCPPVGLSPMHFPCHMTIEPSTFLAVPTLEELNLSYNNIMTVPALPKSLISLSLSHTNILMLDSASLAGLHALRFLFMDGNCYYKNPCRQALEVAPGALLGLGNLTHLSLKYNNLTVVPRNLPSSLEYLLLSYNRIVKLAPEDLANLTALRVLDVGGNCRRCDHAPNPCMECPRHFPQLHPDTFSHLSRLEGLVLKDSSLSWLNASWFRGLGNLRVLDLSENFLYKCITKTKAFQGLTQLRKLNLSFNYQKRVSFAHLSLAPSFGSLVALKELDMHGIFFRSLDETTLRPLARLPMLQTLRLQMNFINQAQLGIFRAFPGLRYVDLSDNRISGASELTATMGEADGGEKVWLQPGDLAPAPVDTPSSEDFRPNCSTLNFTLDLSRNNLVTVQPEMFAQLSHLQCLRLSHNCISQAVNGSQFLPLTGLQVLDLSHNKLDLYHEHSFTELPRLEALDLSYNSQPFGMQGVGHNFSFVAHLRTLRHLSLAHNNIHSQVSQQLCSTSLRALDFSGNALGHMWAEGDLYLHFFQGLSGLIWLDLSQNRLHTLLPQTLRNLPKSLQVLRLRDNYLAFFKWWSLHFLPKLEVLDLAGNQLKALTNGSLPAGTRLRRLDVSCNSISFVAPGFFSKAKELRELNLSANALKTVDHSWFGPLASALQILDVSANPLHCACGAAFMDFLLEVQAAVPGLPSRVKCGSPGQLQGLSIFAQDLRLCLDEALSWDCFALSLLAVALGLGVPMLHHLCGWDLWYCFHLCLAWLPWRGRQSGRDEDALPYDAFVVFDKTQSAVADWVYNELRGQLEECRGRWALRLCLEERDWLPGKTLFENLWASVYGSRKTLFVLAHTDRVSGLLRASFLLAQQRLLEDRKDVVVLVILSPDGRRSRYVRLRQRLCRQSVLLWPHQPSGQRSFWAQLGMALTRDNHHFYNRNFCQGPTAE
Sequence of human TLR7 (Q9NYK1 27-1049): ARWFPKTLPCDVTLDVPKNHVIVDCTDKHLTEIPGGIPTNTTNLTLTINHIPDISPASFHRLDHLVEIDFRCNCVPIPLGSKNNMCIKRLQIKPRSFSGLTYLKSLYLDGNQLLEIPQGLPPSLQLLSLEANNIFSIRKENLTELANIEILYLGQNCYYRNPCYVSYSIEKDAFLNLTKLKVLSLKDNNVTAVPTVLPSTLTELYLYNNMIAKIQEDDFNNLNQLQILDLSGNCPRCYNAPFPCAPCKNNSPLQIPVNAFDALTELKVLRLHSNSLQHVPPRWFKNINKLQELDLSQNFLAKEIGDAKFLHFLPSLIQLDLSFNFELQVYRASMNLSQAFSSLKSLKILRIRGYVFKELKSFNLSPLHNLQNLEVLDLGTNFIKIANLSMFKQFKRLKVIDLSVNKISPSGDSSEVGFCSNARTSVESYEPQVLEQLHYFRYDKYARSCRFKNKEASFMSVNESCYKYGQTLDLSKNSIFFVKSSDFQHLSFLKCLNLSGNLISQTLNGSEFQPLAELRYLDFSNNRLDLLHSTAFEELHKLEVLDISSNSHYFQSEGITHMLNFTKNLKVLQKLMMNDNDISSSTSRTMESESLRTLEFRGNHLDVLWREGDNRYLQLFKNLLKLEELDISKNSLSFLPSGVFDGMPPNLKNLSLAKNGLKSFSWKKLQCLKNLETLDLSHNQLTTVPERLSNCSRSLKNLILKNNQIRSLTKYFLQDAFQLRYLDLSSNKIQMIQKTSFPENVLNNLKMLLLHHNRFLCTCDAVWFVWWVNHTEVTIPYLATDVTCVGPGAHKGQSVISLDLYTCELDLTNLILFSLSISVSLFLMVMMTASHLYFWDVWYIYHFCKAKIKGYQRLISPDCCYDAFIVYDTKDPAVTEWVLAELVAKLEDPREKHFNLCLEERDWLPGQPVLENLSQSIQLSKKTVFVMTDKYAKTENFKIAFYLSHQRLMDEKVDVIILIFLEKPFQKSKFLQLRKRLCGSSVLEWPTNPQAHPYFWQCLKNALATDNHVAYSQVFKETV
Sequence of human TLR8 (Q9NR97 27-1041): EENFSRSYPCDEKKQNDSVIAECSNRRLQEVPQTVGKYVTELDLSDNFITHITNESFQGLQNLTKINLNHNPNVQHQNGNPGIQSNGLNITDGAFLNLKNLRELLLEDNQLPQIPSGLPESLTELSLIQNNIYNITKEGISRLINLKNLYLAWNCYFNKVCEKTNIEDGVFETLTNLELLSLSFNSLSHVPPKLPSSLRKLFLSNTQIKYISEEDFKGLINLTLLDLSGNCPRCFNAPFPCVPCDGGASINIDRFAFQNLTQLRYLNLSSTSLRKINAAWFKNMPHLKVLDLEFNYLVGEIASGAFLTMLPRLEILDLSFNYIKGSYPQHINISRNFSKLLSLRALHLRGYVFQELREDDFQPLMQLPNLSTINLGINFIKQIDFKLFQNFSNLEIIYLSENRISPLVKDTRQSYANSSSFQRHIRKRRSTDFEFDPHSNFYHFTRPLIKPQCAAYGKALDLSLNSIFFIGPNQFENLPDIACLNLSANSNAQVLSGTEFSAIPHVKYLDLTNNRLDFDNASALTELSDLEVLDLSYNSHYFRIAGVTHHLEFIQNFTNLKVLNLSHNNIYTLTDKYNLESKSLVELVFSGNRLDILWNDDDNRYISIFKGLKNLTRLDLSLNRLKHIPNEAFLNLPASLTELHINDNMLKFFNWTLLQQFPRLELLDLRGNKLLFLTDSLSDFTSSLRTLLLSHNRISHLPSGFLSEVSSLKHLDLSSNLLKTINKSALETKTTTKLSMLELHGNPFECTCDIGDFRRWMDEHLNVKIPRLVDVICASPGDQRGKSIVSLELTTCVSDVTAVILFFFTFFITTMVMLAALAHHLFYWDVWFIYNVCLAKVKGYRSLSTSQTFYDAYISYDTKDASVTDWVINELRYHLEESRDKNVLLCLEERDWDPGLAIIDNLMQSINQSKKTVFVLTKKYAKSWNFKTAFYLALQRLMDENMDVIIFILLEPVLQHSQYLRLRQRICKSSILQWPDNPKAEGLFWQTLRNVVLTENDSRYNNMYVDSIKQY

SMILES	IC50 (human TLR8; [1])	IC50 (human TLR9; [2])	IC50 (human TLR7; [3])	IC50 (human TLR8; [4])	IC50 (human TLR9; [5])	IC50 (human TLR7; [6])	also measured
Cc1c(-c2[nH]c3ccc(N4C[C@@H](C)N(CC(N)=O)C[C@H]4C)nc3c2C(C)C)cn2ncnc2c1C [Example 800]	26 nM	> 50000 nM	20 nM				
Cc1c(-c2[nH]c3ccc(C4CCC(NCC(C)(C)S(C)(=O)=O)CC4)nc3c2C(C)C)cn2ncnc2c1C (stereo not drawn) [Example 455]				12 nM	9200 nM	14 nM	
Cc1cc2[nH]c(-c3cc(C)c4ncnn4c3)c(C(C)C)c2nc1C1CCN(CC(C)(C)O)CC1 [Example 572]				25 nM	1200 nM	4.6 nM	
COc1cc(-c2[nH]c3cc(C)c(C4CCN(C5CCOCC5)CC4)nc3c2C(C)C)cn2ncnc12 [Example 589]				62 nM	1060 nM	0.25 nM	
Cc1c(-c2[nH]c3ccc(N4CCC(N(C)Cc5ncnn5C)CC4)nc3c2C(C)C)cn2ncnc2c1C [Example 63]							IC50 (human TLR8; [7]): 4 nM; IC50 (human TLR9; [8]): 42400 nM; IC50 (human TLR7; [9]): 7.4 nM
Cc1c(-c2[nH]c3ccc(C4CCN(C5COC5)CC4)nc3c2C(C)C)cn(C)c(=O)c1Cl [Example 566]				18 nM	19000 nM	24 nM	
Cc1cc(-c2[nH]c3ccc(C4CCNCC4)nc3c2C(C)C)cn2cnnc12 [Example 518]				32 nM	721 nM	1.6 nM	
CC(C)c1c(-c2cn(C)c3ncccc23)[nH]c2ccc(N3CCC(N(CC#N)CC#N)CC3)nc12 [Example 51]							IC50 (human TLR8; [7]): 7 nM; IC50 (human TLR9; [8]): 16300 nM; IC50 (human TLR7; [9]): 5.1 nM
CC(C)c1c(-c2cn(C)c3ncncc23)[nH]c2ccc(N3CCN(C(C)C)CC3)nc12 [Example 126]							IC50 (human TLR8; [7]): 1.5 nM; IC50 (human TLR9; [8]): 6120 nM; IC50 (human TLR7; [9]): 5.9 nM
Cc1c(-c2[nH]c3ccc(C4CCC(NCCS(N)(=O)=O)CC4)nc3c2C(C)C)cn2ncnc2c1C (stereo not drawn) [Example 446]				0.91 nM	364 nM	0.91 nM	
CNC1CCC(c2ccc3[nH]c(-c4cc(OC)c5ncnn5c4)c(C(C)C)c3n2)CC1 (stereo not drawn) [Example 188]							IC50 (human TLR8; [7]): 2.5 nM; IC50 (human TLR9; [8]): 158 nM; IC50 (human TLR7; [9]): 0.29 nM
Cc1c(-c2[nH]c3ccc(N4C[C@@H](C)N(CC(N)=O)[C@@H](C)C4)nc3c2C(C)C)cn2ncnc2c1C [Example 867]	11 nM	> 50000 nM	4.5 nM				
Cc1c(-c2[nH]c3ccc(N4C[C@@H](C)N(C(=O)CCN5CC6(C5)CS(=O)(=O)C6)C[C@@H]4C)nc3c2C(C)C)cn2ncnc2c1C [Example 959]	0.29 nM	7680 nM	1.4 nM				
Cc1c(-c2[nH]c3ccc(N4C[C@@H](C)N(C(=O)CCN5CCC(F)(F)C5)C[C@@H]4C)nc3c2C(C)C)cn2ncnc2c1C [Example 962]	17 nM	> 50000 nM	3.7 nM				
COc1cc(-c2[nH]c3ccc(C4CN(C5CCOCC5)CCO4)nc3c2C(C)C)cn2ncnc12 (stereo not drawn) [Example 659]				24 nM	8540 nM	12 nM	
CCN(CC)C1CCC(c2ccc3[nH]c(-c4cn5ncnc5c(C)c4C)c(C(C)C)c3n2)CC1 (stereo not drawn) [Example 411]				8 nM	2300 nM	6.3 nM	
CC(C)c1c(-c2cc(CO)c3ncnn3c2)[nH]c2ccc(N3CCC(NC4COC4)CC3)nc12 [Example 81]							IC50 (human TLR8; [7]): 0.95 nM; IC50 (human TLR9; [8]): 20100 nM; IC50 (human TLR7; [9]): 1.3 nM
COc1cc(-c2[nH]c3ccc(C4CCN(C5COC5)CC4)nc3c2C(C)C)cn2ncnc12 [Example 535]				8.6 nM	5720 nM	2 nM	
Cc1c(-c2[nH]c3ccc(C4CCC(N(C)C(=O)CN(C)C)CC4)nc3c2C(C)C)cn2ncnc2c1C (stereo not drawn) [Example 404]				9.3 nM	1540 nM	3.8 nM	
CC(C)c1c(-c2cn(C)c3ncncc23)[nH]c2ccc(C3CCC(NC4CCOCC4)CC3)nc12 (stereo not drawn) [Example 305]							IC50 (human TLR8; [7]): 16 nM; IC50 (human TLR9; [8]): 8240 nM; IC50 (human TLR7; [9]): 4 nM
CNC(=O)CN1CCC(c2ccc3[nH]c(-c4cn5ncnc5c(C)c4C)c(C(C)C)c3n2)CC1 [Example 539]				0.82 nM	3320 nM	0.47 nM	
Cc1c(-c2[nH]c3ccc(N4CCN(C(=O)CN(CC(C)C)C(C)C)CC4)nc3c2C(C)C)cn2ncnc2c1C [Example 880]	30 nM	19300 nM	6.4 nM				
COc1cc(-c2[nH]c3ccc(N4CC(NC5CCOCC5)C4)nc3c2C(C)C)cn2ncnc12 [Example 29]							IC50 (human TLR8; [7]): 2.7 nM; IC50 (human TLR9; [8]): 2830 nM; IC50 (human TLR7; [9]): 4.6 nM
COc1cc(-c2[nH]c3ccc(CCC4CN(C(=O)CN(C)C)C4)nc3c2C(C)C)cn2ncnc12 [Example 699]				46 nM	430 nM	12 nM	

SMILES	IC50 (human TLR8; [1])	IC50 (human TLR9; [2])	IC50 (human TLR7; [3])	IC50 (human TLR8; [4])	IC50 (human TLR9; [5])	IC50 (human TLR7; [6])	also measured
COc1cc(-c2[nH]c3cc(C)c(C4CCC(NC5(C)COC5)CC4)nc3c2C(C)C)cn2ncnc12 (stereo not drawn) [Example 311]							IC50 (human TLR8; [7]): 44 nM; IC50 (human TLR9; [8]): 2020 nM; IC50 (human TLR7; [9]): 2.8 nM
[2H]C([2H])(C(=O)N1C([2H])([2H])C([2H])([2H])N(c2ccc3[nH]c(-c4cn5ncnc5c(C)c4C)c(C(C)C)c3n2)C([2H])([2H])C1([2H])[2H])N(C)C (single isomer, unassigned) [Example 890]			1.8 nM				IC50 (human TLR8; TLR8 IC50, HEK-Blue human TLR8 cells, R848 15.9 μM): 1.4 nM; IC50 (human TLR9; TLR9 IC50, HEK-Blue human TLR9 cells, ODN2006 5 nM): 14700 nM
CC(C)c1c(-c2cn(C)c3ncccc23)[nH]c2ccc(C3CCC(NCC4(S(C)(=O)=O)CC4)CC3)nc12 (stereo not drawn) [Example 236]							IC50 (human TLR8; [7]): 2.8 nM; IC50 (human TLR9; [8]): 376 nM; IC50 (human TLR7; [9]): 3.9 nM
Cc1c(-c2[nH]c3ccc(N4CCN(C(=O)CN(C)CCO)CC4)nc3c2C(C)C)cn2ncnc2c1C [Example 969]	0.12 nM	7180 nM	1.3 nM				
CCC[C@H]1CNCCN1c1ccc2[nH]c(-c3cn4ncnc4c(C)c3C)c(C(C)C)c2n1 [Example 986]	0.38 nM	2820 nM	0.63 nM				
COCCN1CCN(c2ccc3[nH]c(-c4cc(OC)c5ncnn5c4)c(C(C)C)c3n2)CC1 [Example 131]							IC50 (human TLR8; [7]): 0.63 nM; IC50 (human TLR9; [8]): 8570 nM; IC50 (human TLR7; [9]): 3.3 nM
Cc1c(-c2[nH]c3ccc(N4[C@H](C)CN(C(=O)CCN(C)C)C[C@H]4C)nc3c2C(C)C)cn2ncnc2c1C [Example 864]	12 nM	5690 nM	1.5 nM				
Cc1c(-c2[nH]c3ccc(N4[C@@H]5CC[C@H]4CN(C(=O)CN(CCO)C(C)(C)C)C5)nc3c2C(C)C)cn2ncnc2c1C [Example 925]	9.2 nM	10100 nM	0.79 nM				
Cc1c(-c2[nH]c3ccc(C4CN(CC(N)=O)C4)nc3c2C(C)C)cn2ncnc2c1C [Example 646]				11 nM	4140 nM	2.1 nM	
CCN(C)CCC(=O)N1C[C@H](C)N(c2ccc3[nH]c(-c4cn5ncnc5c(C)c4C)c(C(C)C)c3n2)C[C@H]1C [Example 906]	0.67 nM	7800 nM	0.39 nM				
Cc1c(-c2[nH]c3ccc(N4CCN(C(=O)CNC5CC5)C[C@@H]4C)nc3c2C(C)C)cn2ncnc2c1C [Example 826]	1 nM	15700 nM	0.7 nM				
CCN(CC(=O)N(C)C)C1CCC(c2ccc3[nH]c(-c4cn5ncnc5c(C)c4C)c(C(C)C)c3n2)CC1 (stereo not drawn) [Example 467]				3.5 nM	413 nM	1.2 nM	
Cc1ncc(CN(C)C2CCN(c3ccc4[nH]c(-c5cn6ncnc6c(C)c5C)c(C(C)C)c4n3)CC2)cn1 [Example 64]							IC50 (human TLR8; [7]): 1.6 nM; IC50 (human TLR9; [8]): 5080 nM; IC50 (human TLR7; [9]): 3.8 nM
Cc1cc(-c2[nH]c3ccc(C4CCNCC4)nc3c2C(C)C)cn(C)c1=O [Example 515]				21 nM	223 nM	7.9 nM	
CCCN1CC2(C1)CN(c1ccc3[nH]c(-c4cc(OC)c5ncnn5c4)c(C(C)C)c3n1)C2 [Example 1019]	16 nM	3280 nM	1.7 nM				
Cc1c(-c2[nH]c3ccc(C4CCC(N(CC#N)CC5(S(C)(=O)=O)CC5)CC4)nc3c2C(C)C)cn2ncnc2c1C (stereo not drawn) [Example 475]				2.2 nM	3500 nM	1.4 nM	
Cc1cnc(CNC2CCC(c3ccc4[nH]c(-c5cc(CO)c6ncnn6c5)c(C(C)C)c4n3)CC2)cn1 (stereo not drawn) [Example 224]							IC50 (human TLR8; [7]): 4.2 nM; IC50 (human TLR9; [8]): 718 nM; IC50 (human TLR7; [9]): 1.5 nM
Cc1c(-c2[nH]c3ccc(N4C[C@@H](C)NC[C@H]4C)nc3c2C(C)C)cn2ncnc2c1C [Example 993]	1.5 nM	7230 nM	0.82 nM				
Cc1c(-c2[nH]c3ccc(N4[C@@H](C)CNC[C@@H]4C)nc3c2C(C)C)cn2ncnc2c1C [Example 821]	1.3 nM	6690 nM	1.3 nM				
Cc1c(-c2[nH]c3ccc(N4CCN(C(=O)CN5CCC5)CC4)nc3c2C(C)C)cn2ncnc2c1C [Example 146]							IC50 (human TLR8; [7]): 2.5 nM; IC50 (human TLR9; [8]): 12900 nM; IC50 (human TLR7; [9]): 5.6 nM
Cc1cc(-c2[nH]c3ccc(C4CCN(CCS(C)(=O)=O)CC4)nc3c2C(C)C)cn2ncnc12 [Example 552]				2.1 nM	4100 nM	0.83 nM	
COc1cc(-c2[nH]c3ccc(C4CCC(N5CC6(CCOC6)C5)CC4)nc3c2C(C)C)cn2ncnc12 (stereo not drawn) [Example 1070]	0.72 nM	845 nM	0.54 nM				
Cc1cnc(CN(C)C2CCC(c3ccc4[nH]c(-c5cn6ncnc6c(C)c5C)c(C(C)C)c4n3)CC2)cn1 (stereo not drawn) [Example 415]				3.5 nM	1240 nM	2.5 nM	
